Results published in PMC3408433, “Selective Cytotoxicity of Amidinopiperidine Based Compounds Towards Burkitt’s Lymphoma Cells Involves Proteasome Inhibition” (PLoS ONE, 2012).

Assays:
[1] = tested on: Ramos Burkitt’s lymphoma cells; test: Metabolic activity assay (MTS), Ramos; format: cell-based, human; conditions: 24 h; for residual metabolic activity relative to control: 50 µM; for cytotoxicity group (Figure 3A) / viability at 100 µM: 100 µM; for viability at 100 µM: Homo sapiens, read-out: residual metabolic activity relative to untreated control
Protocol: When investigating the potency of selected serine protease inhibitors to induce cell death in human B lymphoma cells, we identified a set of compounds cytotoxic for Burkitt’s lymphoma. Using a metabolic activity assay (MTS), we evaluated the proliferation rate of Ramos Burkitt’s lymphoma cells, in the presence of serine protease inhibitors. Cells were treated for 24 h with the compound of interest at concentrations of 100 µM (1–13, 15, 16) or 50 µM (14). After a comparison of metabolic activity relative to that in the untreated control, three groups with distinct modes of action were determined (Figure 3A). […] The second group (compounds 1–3, 5, 7 and 13) caused a moderate decrease (50% to 80%) relative to untreated cells. The last group of compounds (11, 15, 16) severely impaired the metabolic activity, such that it fell to under 6%.
(§1) Cells (1×10^5 cells/mL for Ramos, Daudi, U937 and Jurkat, and 1×10^6 cells/mL for PBMC) were treated with the appropriate amounts of compounds of interest or corresponding vehicle (control cells), then seeded in triplicate in 96 well plates. The metabolic activity was assessed using the CellTiter 96® Aqueous One Solution Cell Proliferation Assay (Promega, Madison/WI, USA), in accordance with the manufacturer’s instructions.

α-chymotrypsin = α-chymotrypsin (Bos taurus, UniProt P00766); test: α-Chymotrypsin inhibition assay
Protocol: In short, a 1 nM solution of α-chymotrypsin was mixed with various concentrations of the substrate Suc-Ala-Ala-Pro-Phe-AMC. All the solutions were prepared in 144 mM Tris–HCl, pH 7.8. Substrate hydrolysis was monitored at 30°C on an automated Tecan Safire^2 microplate reader (Tecan, Mannedorf/Zürich, Switzerland). The initial rates of the reactions (ΔF/Δt) were measured immediately after the addition of the substrate (within 200 s) and plotted versus substrate concentration with nonlinear regression to fit a Michaelis-Menten plot. The curve fit and kinetic parameters (Km and v max) were calculated using GraphPad PRISM version 5.0 software (GraphPad Software, Inc., CA, USA). […] The initial velocities of the hydrolysis reactions were measured under the same conditions as described for the determination of Km. 50 µl of α-chymotrypsin solution was added to 50 µl of each inhibitor solution (prepared in 144 mM Tris–HCl, pH 7.8; final concentration 1 nM) and incubated at 30°C for 15 min. The reaction was initiated with the addition of 100 µl of substrate. […] The Ki values were determined as mean values of all measurements.

Trypsin = biological target: Trypsin; design: method as in PMID 15497744, PMID 15544050, PMID 17484277; conditions: amidolytic assay, chromogenic substrate; determined previously; cited from earlier work
[2] = tested on: NFκB transcriptional activity in Ramos-Blue cells; test: Quanti-blue assay, NFκB transcriptional activity (SEAP reporter); format: cell-based, human; conditions: 50 µM pretreatment 1 h, TNF-α 100 ng/mL, 8 h
Protocol: Ramos-Blue™ cells (Invivogen), which stably express an NF-κB/AP-1-inducible secreted embryonic alkaline phosphate (SEAP) reporter construct, were assayed for NFκB transcriptional activity changes upon pretreating them with the compound of interest (50 µM) for 1 h and subsequently stimulating them with recombinant TNF-α (100 ng/mL). SEAP activity was determined in the supernatant in accordance with the manufacturer’s instructions. Briefly, to 200 µL of QUANTI-Blue regent 20 µL of cell supernatant was added and incubated at 37°C for 3 h. Abosorbance was measured on microplate reader Tecan Safire^2 at 640 nm.

[3] = tested on: human T cell leukaemia (Jurkat); test: Metabolic activity assay (MTS), Jurkat; format: cell-based; conditions: 50 µM, 24 h
Protocol: (§2) Compounds 11, and 14–16 were further tested for selective cytotoxicity. The experiments were conducted on freshly isolated primary peripheral blood mononuclear cells (PBMC) and three other haematological cancers: human T cell leukaemia (Jurkat), human histiocytic lymphoma (U937) and human Burkitt’s lymphoma (Daudi). An MTS assay was performed following 24 h of treatment with the compound of interest at 50 µM. […] The inhibition of proliferation in Ramos cells, mediated with compounds 15 and 16, was concentration dependent.
as §1

[4] = tested on: human Burkitt’s lymphoma (Daudi); test: Metabolic activity assay (MTS), Daudi; format: cell-based; conditions: 50 µM, 24 h
Protocol: as §2, §1

[5] = tested on: human histiocytic lymphoma (U937); test: Metabolic activity assay (MTS), U937; format: cell-based; conditions: U937, 50 µM, 24 h
Protocol: as §2, §1

20S proteasome = biological target: T1, 20S proteasome (Homo sapiens, UniProt P28072+P28074+Q99436); test: Rapid dilution assay (reversibility); format: biochemical
T1 construct: purchased Boston Biochem, Inc
Protocol: The enzyme-inhibitor complex was diluted 100-fold with the substrate of interest to a final volume of 200 µL, initiating the reaction. In the case of reversibility of the inhibitor the residual enzyme activity was expected to be around 90%.

[6] = tested on: peripheral blood mononuclear cells (PBMC); test: Metabolic activity assay (MTS), PBMC; format: cell-based, human; conditions: 50 µM, 24 h
Protocol: as §2, §1

[7] = tested on: procaspase-3 cleavage in Ramos cells; test: Western blot analysis of caspase-3 processing; format: cell-based, human; conditions: compound 50 µM, zVad-fmk 50 µM
Protocol: Ramos cells were seeded in 6-well culture plates at a concentration of 1×10^6 cells/mL and treated with the compound of interest or corresponding vehicle for 1 h, 2 h or 6 h. After the indicated time points, cells were harvested, washed in ice-cold PBS and lysed in modified RIPA buffer (50 mM Tris-HCl, pH 7.4, 150 mM NaCl, 1% NP−40, 0.25% Na-deoxycholate, 1 mM EDTA, 1 µg/mL aprotinin, 1 mM PMSF and 1× Halt Phosphatase inhibitor cocktail (Thermo Scientific, Pierce Biotechnology, IL, USA)). The lysates were sonicated, rocked on ice for 30 min and centrifuged at 13,000 rpm at 4°C for 15 min. Protein samples were electrophoresed in SDS-polyacrylamide gels and then transferred to nitrocellulose membranes. The primary antibodies used were against ubiquitin, phospho-IκBα, IκBα, p65 and caspase-3 (Cell Signaling, Danvers/MA, USA), and p105/p50 (Santa Cruz Biotechnology, Inc., Santa Cruz/CA, USA), and ß-actin (Sigma-Aldrich). Following incubation with the primary antibody, membranes were washed six times and incubated for 1 h at room temperature with the corresponding dilution of the appropriate secondary antibody conjugated with horseradish peroxidase (Upstate, Temecula, CA, USA). The immunoreactivity of respective proteins of interest was determined by chemiluminescence using the SuperSignal West Femto substrate (Pierce, IL, USA), in accordance with the manufacturer's instructions. […]

[8] = tested on: Ramos Burkitt’s lymphoma cells; test: Metabolic activity assay (MTS), Ramos; format: cell-based; conditions: Homo sapiens, 24 h, read-out: IC50, inhibition of proliferation (metabolic activity)
[9] = biological target: T2, caspase-like activity of human 20S proteasome (Homo sapiens, UniProt P28072); test: Proteasome activity measurement, caspase-like; format: biochemical; conditions: purified human 20S proteasome, Z-Leu-Leu-Glu-AMC, uncompetitive
T2 construct: purchased Boston Biochem, Inc
Protocol: Suc-Leu-Leu-Val-Tyr-AMC, Bz-Val-Gly-Arg-AMC and Z-Leu-Leu-Glu-AMC (Bachem, Bubendorf, Switzerland) were used for the chymotrypsin-like, trypsin-like and caspase-like activites, respectively. Assay buffer consisted of TE buffer (20 mM Tris (pH = 8.0), 0.5 mM EDTA, 0.03% SDS). Substrate hydrolysis was continuously monitored at 37°C with an automated microplate reader (Tecan Safire^2). Measured fluorescence values (RFU) were plotted versus time with nonlinear regression to fit a Michaelis-Menten plot.
For the Ki determination, 25 µL of substrate at three concentrations and 25 µL of inhibitor of interest also at three different concentrations were added to the wells of a white microplate. The reaction was initiated with 50 µL of the enzyme in the assay buffer. Flourescence of the AMC release was continuously monitored at 420 nm with 320 nm excitation.
Km and Ki were calculated using SigmaPlot 11 (Enzyme Kinetics Module 1.3) and are presented as the mean of three independent experiments.

SMILES | residual metabolic activity relative to control [1] | cytotoxicity group (Figure 3A) [1] | viability at 100 µM [1] [%] | Ki (α-chymotrypsin) [µM] | Ki (Trypsin) [µM] | reduction of TNF-α-induced NFκB activity (SEAP) [2] | residual metabolic activity relative to control [3] | residual metabolic activity relative to control [4] | residual metabolic activity relative to control [5] | reversibility of proteasome inhibition (20S proteasome) | residual metabolic activity relative to control [6] | compound-induced procaspase-3 cleavage after zVad-fmk pretreatment [7] | IC50 [8] [µM] | Ki ' caspase-like activity [9]
N=C(N)N1CCC(CN(NS(=O)(=O)c2ccc3ccccc3c2)C(=O)N2CCCCC2)CC1 [Compound 15] | severe and selective decrease | severely cytotoxic (severely impaired the metabolic activity, such that it fell to under 6%) | < 6 | 27.6 | 39 | over 60% | no or only moderate decreases | severe and selective decrease | no or only moderate decreases | reversibly inhibit | no or only moderate decreases | completely blocked | 18 | Ki ' = 165±26 µM
N=C(N)N1CCC(CN(NS(=O)(=O)c2ccc3ccccc3c2)C(=O)N2CCCCCC2)CC1 [Compound 16] | severe and selective decrease | severely cytotoxic (severely impaired the metabolic activity, such that it fell to under 6%) | < 6 | 28.7 | 66 | over 60% | no or only moderate decreases | severe and selective decrease | no or only moderate decreases | reversibly inhibit | no or only moderate decreases | completely blocked | 22 | Ki ' = 70±3 µM
